Measurements: paper PMC5889877, “Ex Vivo Cardiotoxicity of Antineoplastic Casiopeinas Is Mediated through Energetic Dysfunction and Triggered Mitochondrial-Dependent Apoptosis” (Oxidative Medicine and Cellular Longevity, 2018)
Marks after values point to notes of the source that are not given here.

Key:
[1] = tested on: mitochondria isolated from Cas-treated hearts; test: Respiratory activity of mitochondria isolated from treated hearts (Clark-type oxygen electrode); design: species or system rat; conditions: for State 4 respiration: 10 mM glutamate-malate; for Respiratory control / State 3 respiration: malate/glutamate; for State 3 respiration: after 100 μM ADP; for decrease in state 3 respiration rate / reduction in maximal respiration: versus control
Protocol: (§1) To measure mitochondrial oxygen consumption, mitochondrial membrane potential, and Ca^2+ uptake, cytochrome c samples were prepared as follows: after perfusion, heart tissue from the left ventricle was minced and homogenized in cold mitochondrial isolation medium (in mM: 125 KCl, 1 EDTA, and 10 HEPES-HCl; pH 7.3). The mitochondrial fraction was obtained by differential centrifugation using the protease Nagarse, as previously described. Mitochondrial oxygen consumption was measured using a Clark-type oxygen electrode. The experiments were carried out in respiration assay medium containing 125 KCl, 10 HEPES-HCl, and 3 KH2PO4 (in mM) with pH 7.3. State 4 respiration was measured in the presence of 10 mM glutamate-malate, and state 3 respiration was evaluated after addition of 100 μM ADP. Maximal respiration was determined with 0.08 μM of carbonyl cyanide m-chlorophenyl hydrazine (CCCP). The mitochondrial membrane potential was measured by fluorometry using 5 μM safranine. Mitochondrial Ca^2+ uptake was determined with the metalochromic indicator, Arsenazo III, or calcium green 5N (5N-CG), using a medium containing 50 μM Arsenazo or 10 μM 5N-CG, 10 mM succinate plus rotenone (0.1 μg·ml^−1), 200 μM ADP, and 0.25 μg oligomycin A. Pulses of 10 nmol Ca^+2 were added every 3 minutes to reach a Ca^+2 release due to MPT opening. Mitochondrial cytochrome c quantification from Cas-treated hearts was performed using Western blot analysis as described previously. The blots were developed with Luminata crescendo substrate (Merck Millipore, Darmstadt, Germany) and detected with VisionWorks LS-UVP Chimio System (BioSpectrum 415 Imaging System, Cambridge, UK).

isolated cardiomyocytes = test: LDH release (CytoTox-ONE); type: cell-based, rat; conditions: cardiomyocytes treated at IC50 (II-gly 2 μM, Doxo 10 μM)
Excerpt: (§2) Ventricular cardiomyocytes were obtained from male Wistar rats (250–300 g) by digestion with collagenase type II as previously described. Cells were washed in Tyrode solution (mM): 130 NaCl, 5.4 KCl, 0.4 NaH2PO4, 0.5 MgCl2, 25 HEPES, and 5 glucose with pH 7.4. After isolation, cells were cultivated at a density of 3.2 × 10^3 viable cells/well in 96-well plates pretreated with laminin in M-199 medium supplemented in mM with 5 taurine, 5 creatine, 2 L-carnitine, 2.5 sodium pyruvate, and penicillin-streptomycin at 100 U·ml^−1 and 100 μg·ml^−1, respectively, at 37°C, with 5% CO2 and 95% air. After incubation for three hours, varying concentrations of Cas were tested in triplicate, exposing the myocytes during 24 hours to each treatment. At the end of the incubation period, the cytotoxicity of Cas was measured using the Alamar Blue viability test (Life Technologies, Carlsbad, CA, USA). Release of cytoplasmic lactate dehydrogenase (LDH) was determined using CytoTox-ONE homogeneous membrane integrity kit (Promega Madison, WI, USA). The activity of caspases 3/7 and caspase 9 was measured in cell lysates using caspase-Glo 3/7 and caspase-Glo 9 test luminescent assay (Promega, Madison, WI, USA), respectively. The cardiomyoblast cell line H9c2 (ATCC CRL-1446) was maintained using standard procedures in DMEM supplemented with 10% fetal bovine serum prior to the oxidative stress experiments.

[2] = tested on: adult rat ventricular myocytes; test: Cardiomyocyte viability, Alamar Blue; type: cell-based; conditions: 24 h treatment, read-out: LD50 (IC50) for cardiomyocyte viability
Excerpt: as §2

isolated rat hearts [3] = test: Myocardial oxygen consumption and energetic metabolites (ATP, PCr) in perfused hearts; conditions: Cas at IC50, Doxo 5 μM
Protocol: (§3) Male Wistar rats (250–300 g) were injected with heparin (10^3 U·kg^−1, i.p.) 20 minutes prior to anesthesia with pentobarbital (100 mg·kg^−1, i.p.). When bilateral corneal reflex was absent, the heart was excised through an abdominal approach. Then, the ascending aorta was visualized and cut and the heart was placed in a cardioplegic solution. To avoid ischemia, the time between cutting the diaphragm to placing the heart in the solution was less than 60 seconds. The hearts were mounted in accordance with the Langendorff model and perfused at a constant flow (12 ml·min^−1) with a Krebs-Henseleit buffer as previously described. A latex balloon connected to a pressure transducer filled with saline solution was inserted into the left ventricle after establishing autonomous contraction. The pulmonary artery was cannulated and connected to a closed chamber using a Clark-type oxygen electrode (Yellow Springs Instruments, Yellow Springs, Ohio) to measure myocardial oxygen consumption (MVO2) in the coronary effluent. The rate of MVO2 was calculated as the difference between the concentration in the K-H buffer before (100%) and after perfusion. Data Trax software (WPI, Sarasota, Florida) was used for continuous recording of the heart rate (HR), left ventricular pressure (LVP), MVO2, and maximum positive and negative derivative of left ventricular pressure (±dP/dt). The baseline was established during 10–15 minutes of K-H perfusion. Each concentration of Cas or Doxo remained in the heart for 30 min. Hearts in the control group were perfused with K-H buffer during the whole experimental time. Rate pressure product (RPP = HR × LVP) and cardiac efficiency ([…]) were calculated as previously reported.
(§4) To measure the energetic metabolites ATP, phosphocreatine (PCr), and aconitase activity at the end of the perfusion protocols, samples were prepared as follows: the hearts were removed from the perfusion system by cutting the aorta and immediately flash-frozen with liquid N2, weighed, and stored at −80°C. Afterward, the hearts were homogenized in ice-cold buffer containing 250 mM sucrose, 10 mM HEPES, and 1 mM EDTA (pH 7.4). For enzymatic determination, aliquots of the homogenate were immediately frozen in liquid nitrogen and stored at −80°C. Quantification of ATP and PCr was carried out in a HPLC system with a dual-pump gradient (Waters Chromatography, Toronto, Canada) as previously described.

cytochrome c = test: Mitochondrial cytochrome c content by Western blot; design: species or system rat; conditions: heart mitochondria after 30 min perfusion at IC50
Protocol: as §1, with “Mitochondrial cytochrome c quantification from Cas-treated hearts was performed using Western blot analysis as described previously. The blots were developed with Luminata crescendo substrate (Merck Millipore, Darmstadt, Germany) and detected with VisionWorks LS-UVP Chimio System (BioSpectrum 415 Imaging System, Cambridge, UK).” left out

caspase 9 = test: Caspase-Glo 9 activity in cell lysates; type: cell-based, rat; conditions: cardiomyocytes treated at IC50
Excerpt: as §2

isolated rat hearts [4] = test: Langendorff-perfused isolated rat heart: mechanical performance (RPP, HR, ±dP/dt, cardiac efficiency); conditions: for t 0.5, time for half-inhibition of RPP / IC50: isolated rat heart; for t 0.5, time for half-inhibition of RPP: 5 μM; for heart rate (HR) reduction: perfused at 5 μM; for IC50: read-out: IC50, half-maximal inhibitory concentration for RPP (heart contractile function), at 30 min perfusion
Protocol: as §3

[5] = tested on: mitochondrial permeability transition pore; test: Mitochondrial Ca2+ retention capacity (MPT opening); design: species or system rat; conditions: for protective effect of CsA on Ca2+ retention capacity: mitochondria from treated hearts, CsA 0.5 μM added in vitro
Protocol: as §1

caspases 3 and 7 = test: Caspase-Glo 3/7 activity in cell lysates; type: cell-based, rat; conditions: cardiomyocytes treated at IC50, compared to Doxo or the control
Excerpt: as §2

aconitase = test: Mitochondrial aconitase activity in heart homogenates; conditions: ex vivo heart, Cas at IC50, Doxo 5 μM
Protocol: as §4

subcutaneous tumors = conditions: nude mice ref 29; cited from earlier work
[6] = tested on: α-ketoglutarate dehydrogenase; design: method as in PMID 26739598; conditions: cited from earlier work

| Compound | State 4 respiration [1] [nmol O min^−1·mg^−1] | Respiratory control [1] | State 3 respiration [1] | decrease in state 3 respiration rate [1] [%] | reduction in maximal respiration [1] [%] | mitochondrial cytochrome c content (cytochrome c) | +dP/dt × 1000 (contraction rate) (isolated rat hearts [4]; hearts treated at the IC50) | −dP/dt × 1000 (relaxation rate) (isolated rat hearts [4]; hearts treated at the IC50) | t 0.5, time for half-inhibition of RPP (isolated rat hearts [4]) | heart rate (HR) reduction (isolated rat hearts [4]) | IC50 (isolated rat hearts [4]) [µM] | protective effect of CsA on Ca2+ retention capacity [5] [%] | increase in activity of caspases 3 and 7 (caspases 3 and 7) | other results |
| --- | --- | --- | --- | --- | --- | --- | --- | --- | --- | --- | --- | --- | --- | --- |
| Cc1ccnc2c1ccc1c(C)ccnc12.NCC(=O)[O-].O.O.O=[N+]([O-])[O-].[Cu+2] [Cas II-gly, Aqua(4,7-dimethyl-1,10-phenanthroline)(glycinate)copper(II)nitrate] | 13.0 ± 5.0 | 1.6 ± 0.3^∗ | 20.2 ± 7.3^∗ nmol O min^−1·mg^−1 | 77 | 82 | reduction of cytochrome c | 2.0 ± 0.13^∗ mmHg·s^−1 | −0.7 ± 0.09^∗ mmHg·s^−1 | 29 ± 1.0^d min | not affected | 5.5 ± 0.5 | 60 | ~ 4 fold | increase in LDH release compared to the control (isolated cardiomyocytes): 3.5 fold; IC50 [2]: 2 ± 0.5 µM; PCr/ATP ratio (isolated rat hearts [3]): augmented; increase in caspase 9 activity (caspase 9): 1.7 fold; decrease of cardiac efficiency (CE) (isolated rat hearts [4]; at IC50 for RPP): 23%; Cardiac efficiency (isolated rat hearts [4]; hearts treated at the IC50): 4.8 ± 0.81 RPP · MVO2 ^−1; decrease of mitochondrial Ca2+ retention capacity ([5]; mitochondria from hearts treated at IC50, versus control): 46.5% |
| CC(=O)C=C(C)[O-].Cc1ccnc(-c2cc(C)ccn2)c1.O.O.O=[N+]([O-])[O-].[Cu+2] [Cas III-ia, Aqua(4,4-dimethyl-2,2′bipyridine)(acetylacetonate)copper(II)nitrate] | 15.6 ± 2.6 | 1.3 ± 0.1^∗ | 18.5 ± 0.6^∗ nmol O min^−1·mg^−1 | 78 | 87 | reduction of cytochrome c | 2.4 ± 0.20^∗ mmHg·s^−1 | −1.0 ± 0.16^∗ mmHg·s^−1 | 49 ± 0.8^a,b,c min | not affected | 10 ± 0.7 | 28 | ~ 4 fold | Max. respiration ([1]; 0.08 μM CCCP): 12.3 ± 2.6^∗ nmol O min^−1·mg^−1; PCr levels (isolated rat hearts [3]): decreased; change in MVO2 (isolated rat hearts [3]): no changes; decrease in ATP content (isolated rat hearts [3]): 37%; aconitase activity (aconitase): decreased; reduction of the volume of subcutaneous tumors (subcutaneous tumors): 81%; α-ketoglutarate dehydrogenase activity compared with III-Ea [6]: twofold decrease |
